Measured values from patent US8962608B2, “Cycloalkylnitrile pyrazole carboxamides as janus kinase inhibitors” (Merck Sharp & Dohme Corp., priority 2011, dated 2015).

Legend:
[1] = target: JAK1 (recombinant purified GST-tagged catalytic domain) (Homo sapiens (Human), UniProt P23458); experiment: biochemical;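 further: biochemical assay with HTRF read-out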
[2] = target: JAK2 (recombinant purified GST-tagged catalytic domain) (Homo sapiens (Human), UniProt O60674); experiment: biochemical;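 further: biochemical JAK kinase assay with HTRF detection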
Chain of JAK2 (recombinant purified GST-tagged catalytic domain) (O60674 849-1124): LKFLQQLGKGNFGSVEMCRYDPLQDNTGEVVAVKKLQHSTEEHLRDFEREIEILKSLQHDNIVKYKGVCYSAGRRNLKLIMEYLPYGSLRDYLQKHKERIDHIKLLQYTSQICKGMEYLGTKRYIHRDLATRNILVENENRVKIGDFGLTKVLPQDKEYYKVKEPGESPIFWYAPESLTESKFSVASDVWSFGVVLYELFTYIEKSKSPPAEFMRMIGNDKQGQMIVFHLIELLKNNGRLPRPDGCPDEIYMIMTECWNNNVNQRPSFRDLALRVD

Chain of JAK1 (recombinant purified GST-tagged catalytic domain) (P23458 875-1153): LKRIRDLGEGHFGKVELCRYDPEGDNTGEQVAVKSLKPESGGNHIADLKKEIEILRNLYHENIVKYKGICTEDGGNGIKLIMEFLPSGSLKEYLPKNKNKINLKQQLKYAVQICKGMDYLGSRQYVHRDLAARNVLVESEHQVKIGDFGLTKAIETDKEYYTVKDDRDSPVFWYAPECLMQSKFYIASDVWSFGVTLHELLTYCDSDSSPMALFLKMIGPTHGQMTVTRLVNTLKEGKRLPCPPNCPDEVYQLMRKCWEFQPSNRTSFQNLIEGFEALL

SMILES | IC50 [1] | IC50 [2]
N#C[C@H]1C[C@H](O)CCC1n1cc(C(N)=O)c(Nc2ccccc2)n1 (mixture of isomers) [Example 2-2, 1-[(1S,2S,4R and 1R,2R,4S)-2-cyano-4-hydroxycyclohexyl]-3-(phenylamino)-1H-pyrazole-4-carboxamide] | 6 nM | 70 nM
CN(C)S(=O)(=O)CCNC1CC[C@H](n2cc(C(N)=O)c(Nc3ccc(S(=O)(=O)C(F)(F)F)cc3)n2)[C@@H](C#N)C1 (single isomer, unassigned) [Example 28-154, 1-[(1S,2S or 1R,2R)-2-cyano-4-{[2-(dimethylsulfamoyl)ethyl]a-mino}cyclohexyl]-3-({4-[(trifluoromethyl)sulfonyl]phen-yl}amino)-1H-pyrazole-4-carboxamide] | 1 nM | 13 nM
CN(C)[C@H]1CC[C@H](n2cc(C(N)=O)c(Nc3ccc(Cl)c(F)c3)n2)[C@@H](C#N)C1 (single isomer, unassigned) [Example 28-41, 3-[(4-chloro-3-fluorophenyl)amino]-1-[(1S,2S,4S or 1R,2R,4R)-2-cyano-4-(dimethylamino)cyclohexyl]-1H-pyrazole-4-carboxamide] | 2 nM | 58 nM
N#C[C@H]1C[C@H](N2CCC2)CC[C@@H]1n1cc(C(N)=O)c(Nc2ccc(OC(F)(F)F)cc2)n1 (single isomer, unassigned) [Example 28-70, 1-[(1S,2S,4R or 1R,2R,4S)-4-azetidin-1-yl-2-cyanocyclohexyl]-3-{[4-(trifluoromethoxy)phenyl]amino}-1H-pyrazole-4-carboxamide] | 2 nM | 40 nM
Cn1cc(-c2ccc(Nc3nn(C4CCCC[C@@H]4C#N)cc3C(N)=O)cn2)cn1 (mixture of isomers) [Example 21-2, 1-[(1S,2S and 1R,2R)-2-cyanocyclohexyl]-3-{[6-(1-methyl-1H-pyrazol-4-yl)pyridin-3-yl]amino)-1H-pyrazole-4-carboxamide] | 2 nM | 15 nM
CN([C@H]1CC[C@H](n2cc(C(N)=O)c(Nc3ccc(Cl)cc3)n2)[C@@H](C#N)C1)S(C)(=O)=O (racemic) [Example 38-6, 3-[(4-chlorophenyl)amino]-1-{(1S,2S,4R and 1R,2R,4S)-2-cyano-4-[methyl(methylsulfonyl)amino]cyclohexyl}-1H-pyrazole-4-carboxamide] | 1 nM | 6 nM
N#C[C@H]1C[C@H](O)CC[C@@H]1n1cc(C(N)=O)c(Nc2ccc(C(F)(F)F)cc2)n1 (single isomer, unassigned) [Example 25-5, 1-[(1S,2S,4R or 1R,2R,4S)-2-cyano-4-hydroxycyclohexyl]-3-{[4-(trifluoromethyl)phenyl]amino}-1H-pyrazole-4-carboxamide] | 1 nM | 10 nM
COCC(C)N(C)[C@H]1CCC(n2cc(C(N)=O)c(Nc3ccc(Cl)cc3)n2)[C@@H](C#N)C1 (single isomer, unassigned) [Example 28-240, 3-[(4-chlorophenyl)amino]-1-[(1S,2S,4S or 1R,2R,4R)-2-cyano-4-{[(1S or 1R)-2-methoxy-1-methylethyl](methyl)ami-no}cyclohexyl]-1H-pyrazole-4-carboxamide] | 2 nM | 27 nM
N#C[C@H]1C[C@@H](N[C@H](C2CC2)C(F)(F)F)CC[C@@H]1n1cc(C(N)=O)c(Nc2ccc(C(F)(F)F)cc2)n1 (single isomer, unassigned) [Example 28-192, 1-[(1S,2S,4S or 1R,2R,4R)-2-cyano-4-{[(1S)-1-cyclopropyl-2,2,2-trifluoroethyl]amino}cyclo-hexyl]-3-{[4-(trifluoromethyl)phenyl]amino}-1H-pyrazole-4-carboxamide] | 2 nM | 67 nM
COCCN(C)[C@H]1CC[C@H](n2cc(C(N)=O)c(Nc3ccc(S(=O)(=O)C(F)(F)F)cc3)n2)[C@@H](C#N)C1 (single isomer, unassigned) [Example 28-149, 1-{(1S,2S,4S or 1R,2R,4R)-2-cyano-4-[(2-methoxy-ethyl)(methyl)amino]cyclohexyl}-3-({4-[(trifluoromethyl)sulfonyl]phen-yl}amino)-1H-pyrazole-4-carboxamide] | 0.6 nM | 17 nM
N#C[C@H]1C[C@@H](NC2COC2)CC[C@@H]1n1cc(C(N)=O)c(Nc2ccc(CC(F)(F)F)cc2)n1 (single isomer, unassigned) [Example 28-79, 1-[(1S,2S,4S or 1R,2R,4R)-2-cyano-4-(oxetan-3-ylamino)cyclohexyl]-3-{[4-(2,2,2-trifluoroethyl)phenyl]amino}-1H-pyrazole-4-carboxamide] | 0.3 nM | 3 nM
N#C[C@H]1CCCC[C@@H]1n1cc(C(N)=O)c(Nc2ccc(S(=O)(=O)NCc3cccnc3)cc2)n1 (single isomer, unassigned) [Example 17-84, 1-[(1R,2R or 1S,2S)-2-cyanocyclohexyl]-3-({4-[(pyridin-3-ylmethyl)sulfamoyl]phenyl}amino)-1H-pyrazole-4-carboxamide] | 0.3 nM | 1 nM
N#C[C@H]1CCCC[C@@H]1n1cc(C(N)=O)c(Nc2cnc3ccc(F)cc3c2)n1 (single isomer, unassigned) [Example 17-48, 1-[(1S,2S or 1R,2R)-2-cyanocyclohexyl]-3-[(6-fluoroquinolin-3-yl)amino]-1H-pyrazole-4-carboxamide] | 2 nM | 14 nM
CS(=O)(=O)CCNC1CC[C@H](n2cc(C(N)=O)c(Nc3ccc(S(=O)(=O)C(F)(F)F)cc3)n2)[C@@H](C#N)C1 (single isomer, unassigned) [Example 28-148, 1-[(1S,2S or 1R,2R)-2-cyano-4-{[2-(methylsulfonyl)eth-yl]amino}cyclohexyl]-3-({4-[(trifluoromethyl)sulfon-yl]phenyl}amino)-1H-pyrazole-4-carboxamide] | 0.35 nM | 4 nM
CC(C)(CO)N[C@H]1CCC(n2cc(C(N)=O)c(Nc3ccc(Cl)cc3)n2)[C@@H](C#N)C1 (single isomer, unassigned) [Example 28-210, 3-[(4-chlorophenyl)amino]-1-{(1S,2S,4S or 1R,2R,4R)-2-cyano-4-[(2-hydroxy-1,1-dimethylethyl)amino]cyclo-hexyl}-1H-pyrazole-4-carboxamide] | 1 nM | 41 nM
COCCN(C)[C@H]1CCC(n2cc(C(N)=O)c(Nc3ccc(Cl)cc3)n2)[C@@H](C#N)C1 (single isomer, unassigned) [Example 28-239, 3-[(4-chlorophenyl)amino]-1-{(1S,2S,4S or 1R,2R,4R)-2-cyano-4-[(2-methoxy-ethyl)(methyl)amino]cyclo-hexyl}-1H-pyrazole-4-carboxamide] | 2 nM | 20 nM
N#C[C@H]1C[C@@H](N2CC3(CCC3)C2)CC[C@@H]1n1cc(C(N)=O)c(Nc2ccnc(F)c2)n1 (single isomer, unassigned) [Example 28-133, 1-[(1S,2S,4S or 1R,2R,4R)-4-(2-azaspiro[3.3]hept-2-yl)-2-cyanocyclohexyl]-3-[(2-fluoropyridin-4-yl)amino]-1H-pyrazole-4-carboxamide] | 0.5 nM | 36 nM
COC(=O)C1CC[C@H](C#N)C(n2cc(C(N)=O)c(Nc3ccccc3)n2)C1 (mixture of isomers) [Example 2-4, methyl (3R,4R and 3S,4S)-3-[4-carbamoyl-3-(phenylamino)-1H-pyrazol-1-yl]-4-cyanocyclohexanecarboxylate] | 423 nM | > 1500 nM
N#C[C@H]1C[C@H](N2CCC2)CC[C@@H]1n1cc(C(N)=O)c(Nc2ccc(Cl)cc2)n1 (single isomer, unassigned) [Example 28-109, 1-[(1S,2S,4R or 1R,2R,4S)-4-azetidin-1-yl-2-cyanocyclohexyl]-3-[(4-chlorophenyl)amino]-1H-pyrazole-4-carboxamide] | 2 nM | 110 nM
N#C[C@H]1CC(NC2CCS(=O)(=O)C2)CC[C@@H]1n1cc(C(N)=O)c(Nc2ccc(S(=O)(=O)C(F)(F)F)cc2)n1 (single isomer, unassigned) [Example 28-153, 1-{(1S,2S or 1R,2R)-2-cyano-4-[(1,1-dioxidotetrahydrothiophen-3-yl)amino]cyclohexyl}-3-({4-[(trifluoromethyl)sulfonyl]phen-yl}amino)-1H-pyrazole-4-carboxamide] | 0.4 nM | 7 nM
N#C[C@@H]1C[C@H](OCC2CC2)CC[C@H]1n1cc(C(N)=O)c(Nc2ccnc(F)c2)n1 (single isomer, unassigned) [Example 26-2, 1-[(1R,2R,4R or 1S,2S,4S)-2-cyano-4-(cyclopropylmethoxy)cyclohexyl]-3-[(2-fluoropyridin-4-yl)amino]-1H-pyrazole-4-carboxamide] | 6 nM | 76 nM
C[C@H](N[C@H]1CC[C@H](n2cc(C(N)=O)c(Nc3ccc(OC(F)(F)F)cc3)n2)[C@@H](C#N)C1)C1CC1 (single isomer, unassigned) [Example 28-91, 1-[(1S,2S,4S or 1R,2R,4R)-2-cyano-4-{[(1S)-1-cyclopropylethyl]amino}cyclo-hexyl]-3-{[4-(trifluoromethoxy)phenyl]amino}-1H-pyrazole-4-carboxamide] | 1 nM | 65 nM
N#C[C@@H]1C[C@H](C(=O)NC2CC2)CC[C@H]1n1cc(C(N)=O)c(Nc2ccc(Cl)cc2)n1 (single isomer, unassigned) [Example 35-19, 3-[(4-chlorophenyl)amino]-1-[(1R,2R,4R or 1S,2S,4S)-2-cyano-4-(cyclopropylcarbamoyl)cyclohexyl]-1H-pyrazole-4-carboxamide] | 5 nM | 23 nM
CC1(N[C@H]2CCC(n3cc(C(N)=O)c(Nc4ccccc4)n3)[C@@H](C#N)C2)CC1 (single isomer, unassigned) [Example 28-216, 1-{(1S,2S,4S or 1R,2R,4R)-2-cyano-4-[(1-methylcyclopropyl)amino]cyclo-hexyl}-3-(phenylamino)-1H-pyrazole-4-carboxamide] | 2 nM | 24 nM
N#C[C@H]1CCCCC1n1cc(C(N)=O)c(Nc2ccc(S(=O)(=O)CF)cc2)n1 (mixture of isomers) [Example 17-65, 1-[(1S,2S and 1R,2R)-2-cyanocyclohexyl]-3-({4-[(fluoromethyl)sulfonyl]phenyl}amino)-1H-pyrazole-4-carboxamide] | 0.16 nM | 2 nM
